Source: patent publication US12492173B2, “Herbicidal substituted N-tetrazolyl aryl carboxamides” (Bayer Aktiengesellschaft, priority 2019, dated 2025)

How the values were obtained:
Format in all cases: in vivo
[1] = test system: Abutilon theophrasti; experiment: Pre-emergence herbicidal action, ABUTH; design: key to Herbicidal action against ABUTH: % activity: 100 = plants have died, 0 = like control plants; settings: for herbicidal activity ABUTH: dosage 320 g/ha, scored visually after 3 weeks vs untreated controls (100% = plants have died)
Method in brief: (§1)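 Seeds were covered with sandy loam soil, then received a pre-emergence surface spray of the WP- or EC-formulated compound. After 3 weeks under good greenhouse growth conditions, damage was scored visually in percent.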

[2] = test system: Amaranthus retroflexus; experiment: Pre-emergence herbicidal action, AMARE; design: key to Herbicidal action against AMARE: % activity: 100 = plants have died, 0 = like control plants; settings: for herbicidal activity AMARE: dosage 320 g/ha, scored visually after 3 weeks vs untreated controls (100% = plants have died); for Herbicidal action against AMARE: comparative experiment
Method in brief: as §1

[3] = test system: Pharbitis purpurea; experiment: Pre-emergence herbicidal action, PHBPU; settings: dosage 320 g/ha, scored visually after 3 weeks vs untreated controls (100% = plants have died)
Method in brief: as §1

[4] = test system: Polygonum convolvulus; experiment: Pre-emergence herbicidal action, POLCO; settings: for herbicidal activity POLCO: dosage 320 g/ha, scored visually after 3 weeks vs untreated controls (100% = plants have died)
Method in brief: as §1

[5] = test system: Echinochloa crus-galli; experiment: Post-emergence herbicidal action, ECHCG; design: key: % herbicidal action vs untreated; 100 = plants died, 0 = like control
Method in brief: (§2)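 Sandy loam, greenhouse; one-leaf stage (2–3 wk after sowing); foliar spray of WP or EC, 600–800 l/ha water + 0.2% wetter; visual rating at ~3 wk vs untreated, % effect.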

[6] = test system: Matricaria inodora; experiment: Post-emergence herbicidal action, MATIN; design: key: % herbicidal action vs untreated; 100 = plants died, 0 = like control
Method in brief: as §2

[7] = test system: Polygonum convolvulus; experiment: Post-emergence herbicidal action, POLCO
Method in brief: as §2

SMILES | herbicidal activity ABUTH [1] | herbicidal activity AMARE [2] | herbicidal activity PHBPU [3] | herbicidal activity POLCO [4] | herbicidal action ECHCG ([5]; Dosage 80 g/ha) | herbicidal action MATIN ([6]; Dosage 80 g/ha) | herbicidal action POLCO ([7]; Dosage 80 g/ha) | herbicidal action ECHCG ([5]; post-emergence, dosage 80 g/ha) | herbicidal action MATIN ([6]; post-emergence, dosage 80 g/ha) | herbicidal action POLCO ([7]; post-emergence, dosage 80 g/ha) | Herbicidal action against ABUTH ([1]; comparative experiment, 80 g of a.i./ha) | Herbicidal action against AMARE ([2]; 80 g of a.i./ha) | Herbicidal action against AMARE ([2]; 20 g of a.i./ha) | Herbicidal action against POLCO ([4]; comparative experiment, 20 g of a.i./ha)
CCCn1nnnc1NC(=O)c1ccc(C(F)F)c(CS(C)(=O)=O)c1SC [Example 3-172] | 100% | 100% | 80% | 100% | 90 | 90 | 80 |  |  |  |  |  |  | 
CCCn1nnnc1NC(=O)c1ccc(C(F)F)c(CSC)c1SC [Example 3-170] | 100% | 100% | 80% | 90% | 90 | 100 | 90 |  |  |  |  |  |  | 
CCn1nnnc1NC(=O)c1ccc(C(F)(F)F)c(CS(C)(=O)=O)c1Cl [Example 2-298] | 100% | 100% | 80% | 90% | 90 | 100 | 90 |  |  |  |  |  |  | 
CCCn1nnnc1NC(=O)c1ccc(C(F)(F)F)c(CS(C)(=O)=O)c1Cl [Example 3-298] | 100% | 100% | 90% | 80% | 90 | 100 | 90 |  |  |  |  |  |  | 
CCn1nnnc1NC(=O)c1ccc(C(F)(F)F)c(C[S+](C)[O-])c1Cl (centres unmarked) [Example 2-297] | 100% | 100% | 90% | 80% |  |  |  | 100% | 100% | 90% |  |  |  | 
CCS(=O)(=O)Cc1c(C(F)F)ccc(C(=O)Nc2nnnn2C)c1Cl [Example 1-325] | 100% | 100% | 100% | 100% | 100 | 80 | 90 |  |  |  |  |  |  | 
Cn1nnnc1NC(=O)c1ccc(C(F)(F)F)c(CS(=O)(=O)CC2CC2)c1Cl [Example 1-316] | 100% | 100% | 90% | 100% | 100 | 90 | 100 |  |  |  |  |  |  | 
CCn1nnnc1NC(=O)c1ccc(C(F)F)c(CS(C)(=O)=O)c1Cl [Example 2-322] | 100% | 100% | 100% | 100% |  |  |  | 100% | 90% | 100% |  |  |  | 
CCn1nnnc1NC(=O)c1ccc(C(F)(F)F)c(CS(=O)(=O)CC)c1Br [Example 2-385] | 100% | 100% | 80% | 100% |  |  |  | 90% | 100% | 90% |  |  |  | 
CCn1nnnc1NC(=O)c1ccc(C(F)F)c(C[S+]([O-])CC)c1Cl (centres unmarked) [Example 2-324] | 100% | 100% | 100% | 100% |  |  |  | 100% | 100% | 100% |  |  |  | 
CCn1nnnc1NC(=O)c1ccc(C(F)(F)F)c(CSC)c1Cl [Example 2-296] | 100% | 100% | 90% | 100% |  |  |  | 90% | 90% | 100% |  |  |  | 
CCn1nnnc1NC(=O)c1ccc(C(F)(F)F)c(CSCCOC)c1Cl [Example 2-305] | 100% | 100% | 100% | 100% |  |  |  | 100% | 100% | 100% |  |  |  | 
CCSCc1c(C(F)(F)F)ccc(C(=O)Nc2nnnn2C)c1Br [Example 1-383] | 100% | 100% | 80% | 100% |  |  |  | 90% | 90% | 90% | 100 | 100 |  | 
CCSCc1c(C(F)(F)F)ccc(C(=O)Nc2nnnn2CC)c1Cl [Example 2-299] | 100% | 100% | 90% | 90% |  |  |  | 90% | 100% | 90% |  |  |  | 
CCCn1nnnc1NC(=O)c1ccc(C(F)(F)F)c(C[S+](C)[O-])c1SC (centres unmarked) [Example 3-162] | 100% | 100% | 90% | 100% |  |  |  | 100% | 100% | 100% |  |  |  | 
Cn1nnnc1NC(=O)c1ccc(I)c(CS(C)(=O)=O)c1Cl [Example 1-364] | 100% | 100% | 90% | 100% | 100 | 100 | 100 |  |  |  |  |  | 100 | 90
